Assay [1] deals with HO-1 human melanoma cells. The assay is described as follows: SCLA reverse Northern hybridization of arrayed subtracted cDNA library with mRNAs from treated HO-1 cells. The assay is classed as cell-based. The following applies: IFN-β 2000 units/ml, MEZ 10 ng/ml, staurosporine 500 ng/ml, temporally pooled mRNAs.
Procedure: Staurosporine-treated HO-1 cells were harvested at 4, 8 and 24 hrs after treatment.
For reverse Northern analysis, RNA samples from each time point were pooled and 20 μg of pooled total RNA was reverse transcribed in two reactions into a ^32P-labeled first strand cDNA probe. After heating at 70° C. for 10 min and quenching on ice for two min, a mixture consisting of 10 pmole of T13V and 10 μg of the total RNA mixture in 50 mM Tris-HCl (pH 8.3), 75 mM KCl, 3 mM MgCl2, 10 mM DTT, 0.5 mM DATP, 0.5 mM dGTP, 0.5 mM dTTP, 0.02 mM dCTP, 5 U RNase inhibitor (Gibco BRL), 100 μCi dCTP (3000 Ci/mmole from Amersham) and 200 U Superscript RT II (Gibco BRL) was added (final 25 μl). The reaction mixture was incubated at 42° C. for one hr and at 37° C. for 30 min after addition of 2 μl of RNase H (10U, Gibco BRL). The membrane was hybridized at 42° C. overnight in a 50% formamide hybridization solution. The hybridized membrane was washed 2× at room temperature for 15 min with 2× SSC containing 0.1% SDS and then washed for at least one hr at 55° C. with 0.1× SSC containing 0.1% SDS. The membranes were exposed for different times to autoradiography.
After subtraction hybridization, a temporally spaced amplified subtracted (TSS) cDNA library (consisting of 4,979 plaques) was picked and plated individually (arrayed) in thirteen 384-well microtiter plates. […] This approach permitted the identification of cDNAs displaying altered expression as a function of the specific treatment protocol.
Assay [2] deals with HO-1 human melanoma cells. The following applies: HO-1 cells, cited from earlier work.
The mark [3] stands for this setting: IFN-β 2000 units/ml, MEZ 10 ng/ml where printed.

Here are results for two compounds from patent US20020055099A1, “SEQUENTIAL CDNA LIBRARY AND USES THEREOF” (priority 1999, published 2002).

As for `C=C(C)[C@@]12O[C@@]3(c4ccccc4)O[C@@H]1[C@@H]1[C@@H]4O[C@]4(CO)[C@@H](O)[C@]4(O)C(=O)C(C)=C[C@H]4[C@@]1(O3)[C@H](C)[C@H]2OC(=O)/C=C/C=C/c1ccccc1` [MEZ, mezerein], the “clones induced only by the agent (uniquely positive after a single treatment protocol)” value in assay [1] was 12 clones. In assay [2] (setting [3]), the “effect on HO-1 cell growth” value is “growth suppression” and the “melanin synthesis / differentiation marker” value is given as “elevated melanin levels”. In assay [2] (MEZ 10 ng/ml), the morphological differentiation result was “exhibit morphological differentiation”.

Take `CN[C@@H]1C[C@H]2O[C@@](C)([C@@H]1OC)n1c3ccccc3c3c4c(c5c6ccccc6n2c5c31)C(=O)NC4` [staurosporine]: in assay [1], the “clones induced only by the agent (uniquely positive after a single treatment protocol)” value was 25 clones and the “positive clones (DMAC) identified after treatment, of 427 positive clones” value worked out at 107 clones. Besides, in assay [2], the apoptosis result is given as “induces apoptosis”.
